Data on two compounds can be found in patent US9899125B2, “Medium- or high-voltage electrical appliance having a low environmental impact and hybrid insulation” (Alstom Technology Ltd., priority 2012, dated 2018).

Molecules are shown by their SMILES.

The nature of data set [1]: Toxicity for humans and animals (statement). The source says:
Currently, the most widely-used gas in that type of equipment is sulfur hexafluoride (SF6). That gas presents dielectric strength that is relatively high, good thermal conductivity, and low dielectric losses. It is chemically inert, non-toxic for humans and animals and, after being dissociated by an electric arc, it recombines quickly and almost completely. In addition, it is non-flammable and its price is still moderate.

Data set [2] is described as follows: Toxicity: LC50 (lethal concentration, 50%). Format: in vivo. The settings on record: pure heptafluoroisobutyronitrile.
The conditions of data set [3]: prior art statement; cited from earlier work.

As to `N#CC(F)(C(F)(F)F)C(F)(F)F` [Heptafluoroisobutyronitrile, 2,3,3,3-tetrafluoro-2-trifluoromethyl propanenitrile], the toxicity for humans entry in data set [1] is listed as “no specific toxicity”. In addition, the “LC50 (lethal concentration, 50%)” value in data set [2] is “greater than 15000 ppm”.

Turning to `FS(F)(F)(F)(F)F` [SF6, sulfur hexafluoride], in data set [3], the “toxicity for humans and animals” value is reported as “non-toxic”.
